Experimental data published in patent US20210188813A1, “EZH2 INHIBITOR AND PHARMACEUTICALLY ACCEPTABLE SALTS AND POLYMORPHIC SUBSTANCES THEREOF, AND APPLICATION OF EZH2 INHIBITOR” (SHANGHAI HAIYAN PHARMACEUTICAL TECHNOLOGY CO., LTD., priority 2018, published 2021).
Values after ≈ are worked out from the molar mass of the structure shown. Where two headings read alike, the source gives them in different places.

Experiments:
[1] = target: T1, PRC2 (EZH2-Y641F) (Homo sapiens, UniProt Q15910, Y641F); assay: In vitro methyltransferase assay; format: biochemical
T1 construct: purchased Active motif
T1 sequence (Q15910 whole entry Y641F): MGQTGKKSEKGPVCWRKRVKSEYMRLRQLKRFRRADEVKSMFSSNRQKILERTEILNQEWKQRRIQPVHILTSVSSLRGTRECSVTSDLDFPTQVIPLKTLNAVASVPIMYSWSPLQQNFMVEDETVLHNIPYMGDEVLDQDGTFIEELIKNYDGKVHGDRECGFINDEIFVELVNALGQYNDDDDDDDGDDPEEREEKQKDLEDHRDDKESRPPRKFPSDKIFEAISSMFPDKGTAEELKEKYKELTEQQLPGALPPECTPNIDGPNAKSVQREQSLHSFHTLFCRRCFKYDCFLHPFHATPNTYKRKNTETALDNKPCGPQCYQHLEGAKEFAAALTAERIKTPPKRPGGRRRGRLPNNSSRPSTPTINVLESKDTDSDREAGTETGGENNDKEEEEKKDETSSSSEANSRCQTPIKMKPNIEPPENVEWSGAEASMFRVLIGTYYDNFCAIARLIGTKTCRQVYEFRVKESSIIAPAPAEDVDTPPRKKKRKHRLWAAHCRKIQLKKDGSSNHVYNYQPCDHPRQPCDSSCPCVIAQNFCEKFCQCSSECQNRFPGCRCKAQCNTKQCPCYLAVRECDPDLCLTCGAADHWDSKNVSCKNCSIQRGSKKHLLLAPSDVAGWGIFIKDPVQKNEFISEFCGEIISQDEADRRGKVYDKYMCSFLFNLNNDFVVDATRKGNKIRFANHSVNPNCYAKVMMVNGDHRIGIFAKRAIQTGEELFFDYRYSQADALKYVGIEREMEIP
T1 sequence (O75530 whole entry partner): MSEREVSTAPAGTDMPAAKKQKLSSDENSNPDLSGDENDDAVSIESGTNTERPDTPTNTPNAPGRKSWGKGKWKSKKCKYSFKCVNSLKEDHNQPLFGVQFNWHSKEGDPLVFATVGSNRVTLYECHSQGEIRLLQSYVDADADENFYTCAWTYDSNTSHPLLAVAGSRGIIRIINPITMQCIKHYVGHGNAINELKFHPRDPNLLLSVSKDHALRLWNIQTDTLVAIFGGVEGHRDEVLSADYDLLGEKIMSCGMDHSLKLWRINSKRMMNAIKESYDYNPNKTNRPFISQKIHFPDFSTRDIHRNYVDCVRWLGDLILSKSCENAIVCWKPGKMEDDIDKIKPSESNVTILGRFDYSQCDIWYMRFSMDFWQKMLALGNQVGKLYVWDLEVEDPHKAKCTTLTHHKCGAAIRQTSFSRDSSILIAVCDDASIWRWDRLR
T1 sequence (Q15022 whole entry partner): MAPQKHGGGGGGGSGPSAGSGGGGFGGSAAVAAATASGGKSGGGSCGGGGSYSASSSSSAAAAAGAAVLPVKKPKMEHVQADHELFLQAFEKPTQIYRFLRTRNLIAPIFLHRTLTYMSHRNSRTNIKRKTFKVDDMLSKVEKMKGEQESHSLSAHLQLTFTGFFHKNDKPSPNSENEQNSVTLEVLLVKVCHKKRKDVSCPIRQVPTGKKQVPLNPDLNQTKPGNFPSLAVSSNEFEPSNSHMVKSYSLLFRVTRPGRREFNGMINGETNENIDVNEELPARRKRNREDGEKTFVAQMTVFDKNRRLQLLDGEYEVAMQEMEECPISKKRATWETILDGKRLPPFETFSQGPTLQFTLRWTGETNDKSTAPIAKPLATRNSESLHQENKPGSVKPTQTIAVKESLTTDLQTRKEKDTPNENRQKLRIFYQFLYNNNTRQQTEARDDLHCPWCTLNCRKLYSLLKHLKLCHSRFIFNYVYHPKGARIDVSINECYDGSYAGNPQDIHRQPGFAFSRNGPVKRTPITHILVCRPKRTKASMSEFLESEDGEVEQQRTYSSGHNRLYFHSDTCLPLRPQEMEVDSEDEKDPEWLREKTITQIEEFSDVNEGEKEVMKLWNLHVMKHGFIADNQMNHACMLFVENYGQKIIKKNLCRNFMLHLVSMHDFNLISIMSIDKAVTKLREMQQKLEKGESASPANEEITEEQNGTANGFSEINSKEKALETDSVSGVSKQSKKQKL
T1 sequence (Q09028 whole entry partner): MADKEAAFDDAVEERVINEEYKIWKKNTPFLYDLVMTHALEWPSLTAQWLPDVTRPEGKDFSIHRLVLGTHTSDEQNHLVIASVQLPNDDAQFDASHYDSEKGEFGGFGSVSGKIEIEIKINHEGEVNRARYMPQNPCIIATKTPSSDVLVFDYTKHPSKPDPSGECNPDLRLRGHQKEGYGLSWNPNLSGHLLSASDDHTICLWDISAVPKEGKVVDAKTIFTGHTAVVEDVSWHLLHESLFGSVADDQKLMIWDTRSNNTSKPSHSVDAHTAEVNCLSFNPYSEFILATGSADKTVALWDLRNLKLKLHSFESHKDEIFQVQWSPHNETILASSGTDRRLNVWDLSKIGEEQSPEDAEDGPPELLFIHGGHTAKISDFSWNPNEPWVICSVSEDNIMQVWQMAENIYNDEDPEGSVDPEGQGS
T1 sequence (Q6ZN18 whole entry partner): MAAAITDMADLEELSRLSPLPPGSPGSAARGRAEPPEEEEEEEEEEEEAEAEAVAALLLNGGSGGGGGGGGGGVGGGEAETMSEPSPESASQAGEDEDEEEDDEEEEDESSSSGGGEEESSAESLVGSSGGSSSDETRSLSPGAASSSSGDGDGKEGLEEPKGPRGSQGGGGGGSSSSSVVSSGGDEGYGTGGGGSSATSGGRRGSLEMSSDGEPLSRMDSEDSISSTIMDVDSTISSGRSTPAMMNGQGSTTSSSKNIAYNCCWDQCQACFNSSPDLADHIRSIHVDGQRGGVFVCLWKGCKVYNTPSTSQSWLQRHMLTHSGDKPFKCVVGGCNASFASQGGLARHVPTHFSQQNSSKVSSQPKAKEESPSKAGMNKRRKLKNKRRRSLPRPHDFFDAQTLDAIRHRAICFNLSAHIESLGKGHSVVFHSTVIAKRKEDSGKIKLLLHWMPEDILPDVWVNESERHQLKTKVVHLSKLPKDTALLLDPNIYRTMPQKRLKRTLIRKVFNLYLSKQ
Experimental: Recombinant PRC2 (EZH2-Y641F) was purchased from Active motif, S-adenosyl-methionin chloride (SAM) and Poly-L-lysine (PLL) were purchased from Sigma-Aldrich, H3(1-50)K27me1 peptide was purchased from Cisbio. LANCEUltra (Perkinelmer) system was used for detection. For the enzyme activity test, tested compounds are 1:3 diluted for 8-points, and added into each well, then 100 ng enzyme is added. And then the buffer [20 mM Tris pH8.5, 2 mM MgCl2, 0.01% Tween-20, 1 mM TCEP] containing […]/250 nM H3 (1-50)K27me1 premixtures are added. After 3 hours enzyme reaction at RT, the premixed detection buffer (PLL, Europium antibody and Ulight) is added, and react for 1 h at RT, then read fluorescence on Tecan infinite pro. IC50s are counted by XLfit using a four-parameter model.

[2] = tested on: Pfeiffer cells; assay: Cell proliferation assay, Pfeiffer; format: cell-based; conditions: for IC50: Homo sapiens, Pfeiffer, 144 h, 6 days' growth, cell counting kit-8
Experimental: (§1) Cell lines Pfeiffer (CRL-2632), suDHL-6 (CRL-2959) and suDHL-10 (CRL-2963) were obtained from ATCC. All cell lines were cultured in RPMI-1640 medium (Gibco) plus 10% FBS (Gibco). Cells are harvested by centrifuge and densities are determined using a CounterStar cell counter. Appropriate number of cells are plated in a96-well culture plate and pre-incubate overnight. Tested compounds are 1:3 diluted for 8-points and added into each well. After 6 days' growth, cell counting kit-8 (Dojindo) is used to detect cell viability and read on Tecan infinite pro. IC50s are counted by XLfit using a four-parameter model.

[3] = tested on: SU-DHL-10; assay: Cell proliferation assay, SU-DHL-10; format: cell-based
Experimental: as §1

[4] = tested on: SU-DHL-6; assay: Cell proliferation assay, SU-DHL-6; format: cell-based
Experimental: as §1

[5] = Dynamic solubility experiment; format: physicochemical; conditions: for solubility at 24 h: thermodynamic from solid; for solubility at 24 h / Solubility: room temperature, 24 h
Source text: The free base samples and the two crystal forms were plotted separately in the experiment.

[6] = Solid state stability experiment; format: physicochemical
Source text: Detected changes in crystal form and purity at 4 and 7 days.

[7] = Polymorph screening by mixing shaking; format: physicochemical; conditions: mixed crystal forms I to III shaken 1 day at room temperature in different solvents
Experimental: Mixing shaking test was conducted using different solvent systems. 2 mg of each crystal form of crystal form I to crystal form III was weighed into a glass vial to obtain the mixed crystals, the appropriate amount of organic reagents in Table 6 were added, screwed the cap, and a sealing film was used to prevent the solvent from volatilizing, shaken for 1 days at room temperature and 25 r/min, taken out and centrifuged at 10000 r/min for 10 min at 4° C., the supernatant was poured, and the solid was placed in a oven at 50° C. for drying, the resulting solid was collected and sent for XRPD test.

[8] = 60° C. and 40° C./75% RH, 4 and 7 days

Compound: CCN(c1cc(C(=O)NCc2c(C)cc(C)[nH]c2=O)c(C)c2c1cnn2C)C1CCN(CC(F)(F)F)CC1 [D4]
- IC50 [1]: > 10000 nM
- IC50 [2]: > 3000 nM

Compound: CCc1c(C(=O)NCc2c(C)cc(C)[nH]c2=O)cc2c(cnn2C)c1N(CC)[C@H]1CC[C@H](N2CC(OC)C2)CC1 [Free base, N-((4,6-dimethyl-2-oxo-1,2-dihydropyridin-3-yl)methyl)-5-ethyl-4-(ethyl((1S,4S)-4-(3-methoxyazetidin-1-yl)cyclohexyl)amino)-1-methyl-1H-indazole-6-carboxamide]
- inhibitory activity against SU-DHL-10 cells [3]: high inhibitory activities
- inhibitory activity against SU-DHL-6 cells [4]: high inhibitory activities
- IC50 [1]: 12 nM
- inhibitory activity against EZH2 Y641F enzyme [1]: high inhibitory activity
- inhibitory activity against EZH2 Y641F enzyme ([1]; listed as compound of formula X): high inhibitory activities
- Final pH ([5]; 0.1M HCl): 4.56
- Phenomenon ([5]; 0.1M HCl): clear
- Final pH ([5]; H2O): 8.32
- Phenomenon ([5]; H2O): turbid
- solubility at 24 h ([5]; aqueous buffer, pH 4.5 buffer): 3590 µg/mL (≈ 6540 µM)
- solubility at 24 h ([5]; aqueous buffer, pH 6.8 buffer): 840 µg/mL (≈ 1530 µM)
- Final pH ([5]; pH 4.5 buffer): 5.84
- Phenomenon ([5]; pH 4.5 buffer): turbid
- Final pH ([5]; pH 6.8 buffer): 6.74
- Phenomenon ([5]; pH 6.8 buffer): turbid
- solubility at 24 h ([5]; simulated gastric fluid, 0.1M HCl): > 50000 µg/mL
- solubility at 24 h ([5]; water, H2O): 60 µg/mL (≈ 109 µM)
- IC50 [2]: 7 nM
- inhibitory activity against cells ([2]; Table 10): high inhibitory activity

Compound: CCc1c(C(=O)NCc2c(C)cc(C)[nH]c2=O)cc2c(cnn2C)c1N(CC)[C@H]1CC[C@H](N2CC(OC)C2)CC1.O=C(O)/C=C\C(=O)O [Crystal form B]
- Phenomenon ([5]; 0.1M HCl): clear
- Solubility ([5]; 0.1M HCl): ≥30400 µg/mL
- Final pH ([5]; H2O): 5.06
- Phenomenon ([5]; H2O): turbid
- Solubility ([5]; H2O): 3130 µg/mL
- Final pH ([5]; pH 4.5 buffer): 4.91
- Phenomenon ([5]; pH 4.5 buffer): clear
- Solubility ([5]; pH 4.5 buffer): ≥3070 µg/mL
- Final pH ([5]; pH 6.8 buffer): 6.53
- Phenomenon ([5]; pH 6.8 buffer): clear
- Solubility ([5]; pH 6.8 buffer): ≥3720 µg/mL
- Content (%) ([6]; 4° C. 0 d): 96.94%
- Properties ([6]; 4° C. 0 d): Off-white
- RRT(%) 0.86 ([6]; 4° C. 0 d): 0.19%
- RRT(%) 0.89 ([6]; 4° C. 0 d): 0.09%
- RRT(%) 0.92 ([6]; 4° C. 0 d): 0.05%
- RRT(%) 0.94 ([6]; 4° C. 0 d): 0.17%
- RRT(%) 1.04 ([6]; 4° C. 0 d): 0.51%
- RRT(%) 1.07 ([6]; 4° C. 0 d): 0.43%
- RRT(%) 1.10 ([6]; 4° C. 0 d): 0.38%
- RRT(%) 1.13 ([6]; 4° C. 0 d): 0.21%
- RRT(%) 1.15 ([6]; 4° C. 0 d): 0.40%
- RRT(%) 1.16 ([6]; 4° C. 0 d): 0.64%
- Total impurities (%) ([6]; 4° C. 0 d): 3.06%
- Content (%) ([6]; 40° C./75% RH 4 d): 96.88%
- Properties ([6]; 40° C./75% RH 4 d): Off-white
- RRT(%) 0.86 ([6]; 40° C./75% RH 4 d): 0.20%
- RRT(%) 0.89 ([6]; 40° C./75% RH 4 d): 0.08%
- RRT(%) 0.92 ([6]; 40° C./75% RH 4 d): 0.05%
- RRT(%) 0.94 ([6]; 40° C./75% RH 4 d): 0.16%
- RRT(%) 1.04 ([6]; 40° C./75% RH 4 d): 0.45%
- RRT(%) 1.07 ([6]; 40° C./75% RH 4 d): 0.40%
- RRT(%) 1.10 ([6]; 40° C./75% RH 4 d): 0.47%
- RRT(%) 1.13 ([6]; 40° C./75% RH 4 d): 0.20%
- RRT(%) 1.15 ([6]; 40° C./75% RH 4 d): 0.41%
- RRT(%) 1.16 ([6]; 40° C./75% RH 4 d): 0.63%
- RRT(%) 1.20 ([6]; 40° C./75% RH 4 d): 0.07%
- Total impurities (%) ([6]; 40° C./75% RH 4 d): 3.12%
- Content (%) ([6]; 40° C./75% RH 7 d): 96.95%
- Properties ([6]; 40° C./75% RH 7 d): Off-white
- RRT(%) 0.86 ([6]; 40° C./75% RH 7 d): 0.25%
- RRT(%) 0.89 ([6]; 40° C./75% RH 7 d): 0.07%
- RRT(%) 0.92 ([6]; 40° C./75% RH 7 d): 0.05%
- RRT(%) 0.94 ([6]; 40° C./75% RH 7 d): 0.16%
- RRT(%) 1.04 ([6]; 40° C./75% RH 7 d): 0.45%
- RRT(%) 1.07 ([6]; 40° C./75% RH 7 d): 0.41%
- RRT(%) 1.10 ([6]; 40° C./75% RH 7 d): 0.44%
- RRT(%) 1.13 ([6]; 40° C./75% RH 7 d): 0.20%
- RRT(%) 1.15 ([6]; 40° C./75% RH 7 d): 0.41%
- RRT(%) 1.16 ([6]; 40° C./75% RH 7 d): 0.63%
- Total impurities (%) ([6]; 40° C./75% RH 7 d): 3.05%
- Content (%) ([6]; 60° C. 4 d): 97.34%
- Properties ([6]; 60° C. 4 d): Off-white
- RRT(%) 0.86 ([6]; 60° C. 4 d): 0.14%
- RRT(%) 0.89 ([6]; 60° C. 4 d): 0.06%
- RRT(%) 0.94 ([6]; 60° C. 4 d): 0.26%
- RRT(%) 1.04 ([6]; 60° C. 4 d): 0.36%
- RRT(%) 1.07 ([6]; 60° C. 4 d): 0.43%
- RRT(%) 1.10 ([6]; 60° C. 4 d): 0.32%
- RRT(%) 1.13 ([6]; 60° C. 4 d): 0.13%
- RRT(%) 1.15 ([6]; 60° C. 4 d): 0.39%
- RRT(%) 1.16 ([6]; 60° C. 4 d): 0.59%
- Total impurities (%) ([6]; 60° C. 4 d): 2.66%
- Content (%) ([6]; 60° C. 7 d): 97.30%
- Properties ([6]; 60° C. 7 d): Off-white
- RRT(%) 0.86 ([6]; 60° C. 7 d): 0.16%
- RRT(%) 0.89 ([6]; 60° C. 7 d): 0.05%
- RRT(%) 0.94 ([6]; 60° C. 7 d): 0.29%
- RRT(%) 1.04 ([6]; 60° C. 7 d): 0.35%
- RRT(%) 1.07 ([6]; 60° C. 7 d): 0.44%
- RRT(%) 1.10 ([6]; 60° C. 7 d): 0.29%
- RRT(%) 1.13 ([6]; 60° C. 7 d): 0.13%
- RRT(%) 1.15 ([6]; 60° C. 7 d): 0.40%
- RRT(%) 1.16 ([6]; 60° C. 7 d): 0.60%
- Total impurities (%) ([6]; 60° C. 7 d): 2.70%
- change in crystal form on storage [6, 8]: the crystal form has not changed
- solid state stability [6, 8]: good stability

Compound: CCc1c(C(=O)NCc2c(C)cc(C)[nH]c2=O)cc2c(cnn2C)c1N(CC)[C@H]1CC[C@H](N2CC(OC)C2)CC1 [Crystal form V]
- stability of crystal form [7]: stable crystal form
